From patent US7875607B2, “7,8-bicycloakyl-chroman derivatives” (Ampere Life Sciences, Inc., priority 2004, dated 2011) come the findings set out here.

Experiment [1] has as its system LTB4 production in heparinized whole blood. Put plainly: Inhibition of LTB4 production in blood. The class given is cell-based, rat or mouse. The following applies: 20 μM A23187, read-out: EC50, protection against LTB4. The method, then: The blood was collected in heparinized tubes or syringes to prevent clotting. Heparin was at 20 USP U/ml. About 3-5 ml of blood was collected per rat and about 0.5-0.75 ml per mouse. This assay required 200 μl/data point, therefore a 96 well plate requires 20 ml.
The Calcium ionophore A23187 was prepared as a 10 mM stock solution in DMSO and the test agent is prepared in DMSO so that <1 μl DMSO will be added to the well
200 μl blood per well were added in a round bottom 96 well clear plastic 96 well plate followed by the test agent. After 10 minutes incubation at 37° C., 5 μl of Calcium ionophore A23187 for a final concentration of 20 μM were added and mixed, and further incubated for 30 min. After 1000×g centrifugation to pellet blood cells, 20 μl plasma was carefully removed.
20 μl plasma were added to 80 μl methanol to precipitate protein and mixed. This was further incubated 10 min. at room temperature and centrifuged at 1000×g to pellet protein.
Following manufacturer's instructions, the commercially available EIA kit was used to subsequently measure the LTB4 production in the samples. The LTB4 levels produced in the vehicle control sample were then compared to those in which the test compound had been added. From this a percent inhibition of LTB4 production by each concentration of test compound was calculated and the IC50 for inhibition of LTB4 production for each test compound was determined.

The target in experiment [2] is T1, human recombinant 5-lipoxygenase (Homo sapiens, UniProt P09917).
T1 construct: purchased Cayman 60402
T1 sequence (P09917 1-674): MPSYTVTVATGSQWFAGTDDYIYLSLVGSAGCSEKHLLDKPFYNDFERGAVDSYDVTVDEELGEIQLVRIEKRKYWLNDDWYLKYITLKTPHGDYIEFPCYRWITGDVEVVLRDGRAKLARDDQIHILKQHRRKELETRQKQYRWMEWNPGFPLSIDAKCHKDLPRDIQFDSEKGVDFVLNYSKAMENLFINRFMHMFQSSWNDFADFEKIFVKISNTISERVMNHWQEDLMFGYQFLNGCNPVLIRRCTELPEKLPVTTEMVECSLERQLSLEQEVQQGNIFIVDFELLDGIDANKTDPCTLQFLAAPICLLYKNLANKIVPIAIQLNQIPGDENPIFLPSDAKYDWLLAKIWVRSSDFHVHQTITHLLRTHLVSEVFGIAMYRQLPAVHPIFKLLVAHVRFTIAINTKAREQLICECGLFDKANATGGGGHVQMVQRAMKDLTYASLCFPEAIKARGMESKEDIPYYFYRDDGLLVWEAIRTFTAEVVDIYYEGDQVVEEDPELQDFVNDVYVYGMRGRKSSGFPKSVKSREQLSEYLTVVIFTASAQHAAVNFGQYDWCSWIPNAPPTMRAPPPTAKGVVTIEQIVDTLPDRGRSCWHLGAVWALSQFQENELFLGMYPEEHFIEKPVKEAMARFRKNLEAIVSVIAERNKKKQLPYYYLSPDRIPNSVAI
Put plainly: 5-Lipoxygenase enzyme assay. The format is biochemical. The following applies: 70 μM arachidonic acid, pH 7.4. How it is done:
This procedure was used for measuring the enzymatic activity of human recombinant 5-lipoxygenase using a […] method based on the ferric oxidation of xylenol orange.
Human recombinant 5-lipoxygenase (Cayman Cat # 60402) was used in this assay. The test compound and/or vehicle was added to 0.5U 5-lipoxygenase in 50 mM Tris-HCl buffer, pH 7.4. The reaction was initiated by addition of 70 μM arachidonic acid in Tris-HCl buffer, pH 7.4, and terminated after a 10 minute incubation at room temperature by addition of FOX reagent (25 mM sulphuric acid, 100 μM xylenol orange, 100 μM iron (II) sulphate, methanol:water 9:1). The yellow color of acidified xylenol orange was converted to a blue color by the lipid hydroperoxide-mediated oxidation of Fe^2+ ions and the interaction of the resulting Fe^3+ ions with the dye. The complex was allowed to form during a 1 hour incubation at room temperature with shaking. Absorbance of the Fe^3+ complex was then measured at […] using a spectrophotometer.
Negative controls contained enzyme during the incubation step but substrate was not added until after the FOX reagent.
Compounds were screened at 5 concentrations in triplicate starting at 10 μM

The test system of experiment [3] is dopaminergic neuronal cell line. As to the kind of experiment: High glutamate-induced oxidative stress assay (HGOS). The format is cell-based. The following applies: Mus musculus; 30 mM glutamate, 16 hrs; read-out: EC50, protection against HGOS cell injury and cell death. An excerpt:
Protection against redox stress can be further evaluated in cell culture using high glutamate induced oxidative stress (HGOS) in mouse dopaminergic cell lines. The cytotoxic effect of glutamate is not due to excitotoxicity, as this cell line is devoid of inotropic glutamate receptors. Rather, the glutamate-induced toxicity of dopaminergic cells is associated with an inhibition of cystine transport which subsequently leads to depletion of intracellular glutathione (GSH) levels (Murphy T. H., et al. Neuron 2, 1547-1558, 1989), activation of neuronal 12-lipoxygenase (Li, Y. et al., Neuron 19, 453-463, 1997), increased ROS production (Tan S. et al., J. Cell Biol. 141, 1423-1432, 1998) and elevated intracellular Ca^2+ (Li, Y. et al., see supra). Some molecules were measured for their ability to protect cells against glutamate-induced stress and the assay is detailed in Examples.
This procedure was used to induce high glutamate-induced oxidative stress (HGOS) in a dopaminergic neuronal cell line. Using this assay the potency and efficacy of test articles against HGOS neuronal cell injury and cell death was established in a high throughput manner.
The cells were seeded into 96-well plates at a density of 2000 per well and left to grow for 72 hours in a 33° C. incubator with 5% CO2 in air atmosphere. The passage number of the cells for each assay experiment were no later than p11 in order to minimize experimental variation.
All compounds were dissolved in DMEM-No Glu containing 1 mM glucose, 30 mM glutamate and 1×Pen/Strep. DMEM-No Glu with 1 mM glucose and 1×P/S was used as the negative control, DMEM-No Glucose with 1 mM glucose, […] was used as a positive control and 100 μM Glutathione was added to the positive control as a standard. All of the procedures for this involving the making and dilution of compounds were performed using aseptic conditions and with minimal light.
The plates were removed from the incubator and examined under the microscope for morphological appearance and density. Using an aseptic technique and an 8-channel aspirator the media was carefully removed from the cells and replaced with 200 μl of 1×HBSS. This was done as quickly as possible to prevent the cells drying out. The plates were then placed in the humidified 37° C. incubators of the Biomek 2000 Side Loader. Four plates were washed at a time so as to minimize the time that the cells were sitting in 1×HBSS prior to addition of the compound test solution.
The Beckman Biomek workstations were used to load the compounds and controls from the mother plates onto the cell plates that were prewashed with HBSS under sterile conditions. The plates were incubated in the upper HTS incubator at 37° C. in 5% CO2 for exactly 16 hrs. The following day, using the Beckman Biomek workstations, the plates were removed from the incubator. Using Cell Tracker Addition, the compounds were removed from the plates, washed once with […] of pre-warmed 1×HBSS and then 100 μL of 5 μM Cell Tracker Green was added to each well. The plates were incubated at 37° C. for 30 min to allow the dye to enter the cell and be cleaved by the esterases. After washing the cells twice with prewarmed 1×HBSS, the plates were read with the 485 excitation; 538 emission filter pair on a Fluoroskan.

Experiment [4] concerns LTB4 release from MPRO cell line. As to the kind of experiment: LTB4-cell assay. The class given is cell-based. The following applies: Mus musculus; differentiated MPRO cells, 1 μM A23187, 1 hour; read-out: EC50, inhibition of LTB4. How it is done: This procedure was used for measuring the release of the leukotriene LTB4 from a neutrophil cell line using a competitive ELISA technique.
A mouse promyelocytic cell line (MPRO) was used in this assay. These cells are committed immature neutrophils that can be differentiated into mature neutrophils by treatment with 10 μM all-trans retinoic acid for 72 hours
Following 72 hours of differentiation, cells were stimulated with 1 μM of a calcium ionophore (A23187) in the presence or absence of test compound or vehicle for 1 hour at 37° C. After this time, supernatant was removed from the cells and the LTB4 levels were determined following manufacturer's instructions, using a Leukotriene B4 EIA kit from Cayman (Cat # 520111)
The negative controls were media samples from differentiated but unstimulated cells.
The compounds were screened at 5 concentrations in quadruplicate starting at 10 μM

Experiment [5] concerns ELAM (E-selectin) expression in endothelial cells. Put plainly: Cell-ELAM assay. The format is cell-based. The following applies: 10 μg/ml LPS and 100 pg/ml IL-1β, 6 hours. The text has this: In vitro cell-based assays for inflammation are well known in the art, for example e-selectin (also named Endothelial Leukocyte Adhesion Molecule or ELAM) or C-reactive protein (CRP). The ELAM assay measures in vitro activity of the test compounds in reducing expression of ELAM in activated endothelial cells. Briefly, endothelial cells are […] by adding known activators such as lipopolysaccharides, TNF or IL-1, alone or in some combination. Activated cells produce ELAM, which can be measured using, for example, an E-selectin monoclonal antibody-based ELISA assay. Similarly the CRP assay measures in vitro activity of test compounds in reducing expression of CRP in Human Hep3B epithelial cells. The activated cells produce CRP, which can be measured with a CRP ELISA assay.
Endothelial-Leukocyte Adhesion Molecule (ELAM), also known as E-selectin, was expressed on the surface of endothelial cells. In this assay, lipopolysaccharide (LPS) and IL-1β were used to stimulate the expression of ELAM; test agents were tested for their abilities to reduce this expression, in accordance with studies showing that reduction of leukocyte adhesion to endothelial cell surface was associated with decreased cellular damage (e.g., Takada, M., Et al., Transplantation 64: 1520-25, 1997; Steinberg, J. B., et al., J. Heart Lung Trans. 13:306-313, 1994).
Endothelial cells may be selected from any of a number of sources and cultured according to methods known in the art; including, for example, coronary artery endothelial cells, human brain microvascular endothelial cells (HBMEC; Hess, D. C., et al., Neurosci. Lett. 213(1): 37-40, 1996), or lung endothelial cells. Cells were conveniently cultured in 96-well plates. Cells were stimulated by adding a solution to each well containing 10 μg/ml LPS and 100 pg/ml IL-1β for 6 hours in the presence of test agent (specific concentrations and time may be adjusted depending on the cell type) Treatment buffer was removed and replaced with pre-warmed Fixing Solution® (100 μl/well) for 25 minutes at room temperature. Cells were then washed 3×, then incubated with Blocking Buffer (PBS+2% FBS) for 25 minutes at room temperature. Blocking Buffer containing Monoclonal E-Selectin Antibody (1:750, Sigma Catalog # S-9555) was added to each well. Plates were sealed and stored at 4° overnight. Plates were washed 4× with 160 μL Blocking Buffer per well. Second Antibody-HRP diluted 1:5000 in Blocking Buffer was then added (100 μL/well), and plates were incubated at room temperature (protected from light) for two hours. Plates were then washed 4× with Blocking Buffer before addition of 100 μL of ABTS Substrate solution at room temperature (Zymed, Catalog # 00-2024). Wells were allowed to develop for 35 minutes, before measurement at 402 nm in a Fluoroskan® Reader with shake program for 10 seconds. Positive results were recorded as a decrease in ELAM concentration in tested wells, as compared to control wells.

Where only a bound is given, the exact number is not on record here.

In the case of `CC1(C)CCc2cc(O)c3c(c2O1)C1C=CC3C1` (stereo not shown) [2,2-Dimethyl-3,4,7,10-tetrahydro-7,10-methano-2H-benzo[h]chromen-6-ol], the concentration for a half-maximal effect (EC50) in experiment [1] was no more than 10 µM; in experiment [3] it was no more than 1 µM; in experiment [4], no more than 5 µM. Further, the IC50 in experiment [2] is no more than 5 µM.

As for `CC(C)=CCc1c(O)c2c(c3c1CCC(C)(C)O3)C1C=CC2CC1` (stereo not shown) [2,2-Dimethyl-5-(3-methyl-but-2-enyl)-3,4,7,10-tetrahydro-7,10-ethano-2H-benzo[h]chromen-6-ol], the EC50 is no more than 30 µM in experiment [5] and no more than 1 µM in experiment [3]. Besides, in experiment [2], the IC50 was no more than 5 µM.

For `CC1(CCCl)CCc2cc(O)c3c(c2O1)C1CCC3C1` (stereo not shown) [2-(2-Chloro-ethyl)-2-methyl-3,4,7,8,9,10-hexahydro-7,10-methano-2H-benzo[h]chromen-6-ol], the EC50 is no more than 30 µM in experiment [5] and no more than 1 µM in experiment [3].

Take `Cc1c(O)c2c(c3c1CCC(C)(CCCCl)O3)C1CCC2CC1` (stereo not shown) [2-(3-Chloro-propyl)-2,5-dimethyl-3,4,7,8,9,10-hexahydro-7,10-ethano-2H-benzo[h]chromen-6-ol]: the values for the EC50 in experiment [1] and in experiment [3] were no more than 10 µM and no more than 1 µM, respectively. In experiment [2], the IC50 was no more than 5 µM.

As to `CC1(CCCCl)CCc2cc(O)c3c(c2O1)C1CCC3CC1` (stereo not shown) [2-(3-Chloro-propyl)-2-methyl-3,4,7,8,9,10-hexahydro-7,10-ethano-2H-benzo[h]chromen-6-ol], the values for the EC50 in experiment [1], in experiment [3] and in experiment [4] were no more than 10 µM, no more than 1 µM and no more than 5 µM, respectively.

In the case of `CC1(CCCSc2nc3ccccc3s2)CCc2cc(O)c3c(c2O1)C1CCC3C1` (stereo not shown) [2-[3-(Benzothiazol-2-ylsulfanyl)-propyl]-2-methyl-3,4,7,8,9,10-hexahydro-7,10-methano-2H-benzo[h]chromen-6-ol], the EC50 was no more than 30 µM in experiment [5] and no more than 1 µM in experiment [3].

In the case of `CC1(C)CCc2c(Br)c(O)c3c(c2O1)C1CCC3CC1` [5-Bromo-2,2-dimethyl-3,4,7,8,9,10-hexahydro-7,10-ethano-2H-benzo[h]chromen-6-ol], the EC50 was no more than 10 µM in experiment [1] and no more than 1 µM in experiment [3]. Also, the 50% inhibitory concentration (IC50) in experiment [2] is no more than 5 µM.

Consider `CC1(C)CCc2c(Br)c(O)c3c(c2O1)C1CCC3C1` (stereo not shown) [5-Bromo-2,2-dimethyl-3,4,7,8,9,10-hexahydro-7,10-methano-2H-benzo[h]chromen-6-ol], for which the EC50 in experiment [5] was no more than 30 µM; in experiment [3], no more than 1 µM.
